Source: PubChem BioAssay (NCI)
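The compound was tested at five concentrations on cells cultured in 96-well plates, with a 48-hour exposure period. At the GI50, growth is halved. TGI denotes the concentration required for complete inhibition of growth.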

What was measured:
Assay in all cases: DTP human tumour cell line panel, 48 h
[1] = test system: COLO 205 colon
[2] = test system: HOP-62 NSCLC
[3] = test system: SF-268 CNS
[4] = test system: UACC-62 melanoma
[5] = test system: SK-MEL-2 melanoma
[6] = test system: SN12C renal
[7] = test system: A549 NSCLC
[8] = test system: OVCAR-4 ovarian
[9] = test system: NCI-H226 lung
[10] = test system: LOX IMVI melanoma

SMILES	GI50 [1]	TGI [1]	GI50 [2]	TGI [2]	GI50 [3]	TGI [3]	GI50 [4]	TGI [4]	GI50 [5]	TGI [5]	GI50 [6]	TGI [6]	GI50 [7]	TGI [7]	GI50 [8]	TGI [8]	GI50 [9]	TGI [9]	GI50 [10]	TGI [10]
CCN(C(=O)N1CCN(c2cc3c(cc2F)c(=O)c(C(=O)O)cn3C2CC2)CC1)c1nc(-c2ccccc2)cs1	2.58 µM	7.1 µM	2.82 µM	> 100 µM	3.29 µM	> 100 µM	2.05 µM	5.62 µM	2.02 µM	4.64 µM	3.44 µM	> 100 µM	3.11 µM	> 100 µM	2.29 µM	25.9 µM	1.84 µM	3.74 µM	1.39 µM	9.09 µM
O=C(COc1ccc(/C=C2\Oc3ccc4ccccc4c3C2=O)cc1)c1ccc([N+](=O)[O-])cc1	11.2 µM	33.5 µM	26.7 µM	61.6 µM	13.2 µM	33.7 µM	11.9 µM	25.9 µM	15.5 µM	73.7 µM	10.5 µM	30.7 µM	45 µM	> 100 µM	2.14 µM	8.87 µM	16.7 µM	39.1 µM	2.88 µM	10.8 µM
Cc1cccc2c(C3=C(c4cn(C)c5ccccc45)C(=O)NC3=O)cn(C)c12	> 16.9 µM	> 25 µM	13.4 µM	> 25 µM	13.6 µM	> 25 µM	> 25 µM	> 25 µM	24.3 µM	> 25 µM	> 25 µM	> 25 µM	> 25 µM	> 25 µM	6.64 µM	> 23.1 µM	> 25 µM	> 25 µM	> 22 µM	> 25 µM
Cc1cc(F)c(C(=O)Nc2cccc(-c3nncn3C(C)C)n2)cc1-n1cnc(C2CC2)c1	4.2 µM	21.3 µM	16.6 µM	58.8 µM	21.5 µM	> 100 µM	14.1 µM	48 µM	23.9 µM	58.1 µM	15.6 µM	62.4 µM	15.2 µM	74 µM	13.1 µM	97 µM	19.5 µM	80.7 µM	14.4 µM	35.9 µM
NC(N)=NN=c1c(=O)c2ccccc2c1=O	17.9 µM	32.4 µM	9 µM	21 µM	2.06 µM	3.81 µM	12.7 µM	25.8 µM	20.7 µM	40.1 µM	1.81 µM	3.83 µM	12.4 µM	30.5 µM	12.6 µM	25.2 µM	14.8 µM	28.1 µM	1.58 µM	3.25 µM
O=CC(OC(=O)c1ccccc1)C(OC(=O)c1ccccc1)C(COC(c1ccccc1)(c1ccccc1)c1ccccc1)OC(=O)c1ccccc1 (stereo not given)	11.8 µM	25.4 µM	18.3 µM	32.6 µM	12.7 µM	32.3 µM	14.5 µM	44.1 µM	18.4 µM	50.4 µM	17.4 µM	47.9 µM	22.1 µM	61.7 µM	17.5 µM	47.1 µM	18.9 µM	64.4 µM	11 µM	27.3 µM
